Laboratory results: patent US8247424B2, “Fredericamycin derivatives” (Zentopharm GmbH, priority 2002, dated 2012)
≈ marks a conversion by molar mass, not a printed value.

System: not listed separately
Experiment: Water solubility of the fredericamycin derivatives
Assay type: physicochemical
Details: 0.9% NaCl solution, pH 7
Source text: The water solubility of the various fredericamycin derivatives can be determined in a 0.9% NaCl solution with a pH of 7.

Compound | water solubility
COC1=CC(=O)c2c(O)c3c(c(O)c2C1=O)C(=O)[C@]1(CCc2cc4cc(C(=O)[O-])[nH]c(=O)c4c(O)c21)C3=O.[K+] [Example 12, Potassium(8S)-4′,9,9′-trihydroxy-6′-methoxy-1,1′,3′,5′,8′-pentaoxo-1,1′,2,3′,5′,6,7,8′-octahydrospiro[cyclopenta[g]isoquinoline-8,2′-cyclopenta[b]-naphthalene]-3-carboxylate] | sufficiently and markedly better soluble than fredericamycin
(8S)-4′,9,9′-trihydroxy-6′-methoxy-1,1′,3′,5′,8′-pentaoxo-1,1′,2,3′,5′,6,7,8′-octahydrospiro[cyclopenta[g]isoquinoline-8,2′-cyclopenta[b]-naphthalene]-3-carbaldehyde oxime [Example 6] | dissolves well
CON=Cc1cc2cc3c(c(O)c2c(=O)[nH]1)[C@@]1(CC3)C(=O)c2c(O)c3c(c(O)c2C1=O)C(=O)C(OC)=CC3=O [Example 7, (8S)-4′,9,9′-trihydroxy-6′-methoxy-1,1′,3′,5′,8′-pentaoxo-1,1′,2,3′,5′,6,7,8′-octahydrospiro[cyclopenta[g]isoquinoline-8,2′-cyclopenta[b]-naphthalene]-3-carbaldehyde-O-methyloxime] | sufficiently and markedly better soluble than fredericamycin
COC1=CC(=O)c2c(O)c3c(c(O)c2C1=O)C(=O)[C@]1(CCc2cc4cc(C=O)[nH]c(=O)c4c(O)c21)C3=O [Example 3, (8S)-4′,9,9′-trihydroxy-6′-methoxy-1,1′,3′,5′,8′-pentaoxo-1,1′,2,3′,5′,6,7,8′-octahydrospiro[cyclopenta[g]isoquinoline-8,2′-cyclopenta[b]-naphthalene]-3-carbaldehyde] | dissolve very well
COC1=CC(=O)c2c(O)c3c(c(O)c2C1=O)C(=O)[C@]1(CCc2cc4cc(/C=N/NC(=O)C[n+]5ccccc5)[nH]c(=O)c4c(O)c21)C3=O.[Cl-] [Example 5, 1-[2-Oxo-2-((2E)-2-{[(8S)-4′,9,9′-trihydroxy-6′-methoxy-1,1′,3′,5′,8′-pentaoxo-1,1′,2,3′,5′,6,7,8′-octahydrospiro[cyclopenta[g]isoquinoline-8,2′-cyclopenta[b]-naphthalene]-3-yl]methylene}hydrazino)-ethyl]pyridinium chloride] | sufficiently and markedly better soluble than fredericamycin
COC1=CC(=O)c2c(O)c3c(c(O)c2C1=O)C(=O)[C@]1(CCc2cc4cc(C(=O)O)[nH]c(=O)c4c(O)c21)C3=O [Example 11, (8S)-4′,9,9′-trihydroxy-6′-methoxy-1,1′,3′,5′,8′-pentaoxo-1,1′,2,3′,5′,6,7,8′-octahydrospiro[cyclopenta[g]isoquinoline-8,2′-cyclopenta[b]-naphthalene]-3-carboxylic acid] | sufficiently and markedly better soluble than fredericamycin
(8S)-4′,9,9′-trihydroxy-6′-methoxy-1,1′,3′,5′,8′-pentaoxo-1,1′,2,3′,5′,6,7,8′-octahydrospiro[cyclopenta[g]isoquinoline-8,2′-cyclopenta[b]-naphthalene]-1,1′,3′,5′,8′(2H)-pentone [Example 10] | soluble

System: 12 cancer cell lines: LCL (H460, lung), MACL (MCF7, breast), LXFL (52L, lung), LXFA (629L, lung), MEXF (462NL, melanoma), MEXF (514L, melanoma), MAXF (401NL …)
Experiment: Biological activity against 12 cancer cell lines, efficacy (IC70) averaged over all cell lines;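 note: panel also covers renal lines RXF 944L and RXF 486L, uterine UXF 1138L, and prostate lines PRXF PC3M and PRXF 22RV1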
Assay type: cell-based
Details: averaged over all 12 cancer cell lines, 5 test concentrations
Description: LCL (H460, lung), MACL (MCF7, breast), LXFL (52L, lung), LXFA (629L, lung), MEXF (462NL, melanoma), MEXF (514L, melanoma), MAXF (401NL, breast), RXF (944L, renal), RXF (486L, renal), UXF (1138L, uterus), PRXF (PC3M, prostate), PRXF (22RV1).

Compound | IC70
N.N.[Cl][Pt][Cl] [cisplatin] | 37.1020 µg/mL
COC1=CC(=O)c2c(O)c3c(c(O)c2C1=O)C(=O)[C@@]1(CCc2cc4cc(C(O)C(O)C(O)C(C)O)[nH]c(=O)c4c(O)c21)C3=O (stereo partly drawn) [Example 1, 1-Desoxy-5-C-[(8R)-4′,9,9′-trihydroxy-6′-methoxy-1,1′,3′,5′,8′-pentaoxo-1,1′,2,3′,5′,6,7,8′-octahydrospiro[cyclopenta[g]isoquinoline-8,2′-cyclopenta[b]-naphalene]-3-yl]pentitol] | 0.1130 µg/mL (≈ 0.186 µM)
C/C=C/C=C/c1cc2cc3c(c(O)c2c(=O)[nH]1)[C@@]1(CC3)C(=O)c2c(O)c3c(c(O)c2C1=O)C(=O)C(NC)=CC3=O [Example 265] | 0.1330 µg/mL (≈ 0.247 µM)
